Where “and” joins values, the source holds several entries; their conditions need not be identical. Identical values can stand only once. Like-named read-outs stand apart in the source and are kept apart here.
How the values were obtained:
[1] = molecular target: T1, recombinant RT (HIV-1BH10) (Human immunodeficiency virus type 1 group M subtype B, UniProt P03366); assay: Reverse transcriptase enzyme inhibition assays; format: biochemical
T1 construct: Purified recombinant RT (HIV-1BH10) was obtained from the University of Alabama; purchased University of Alabama, Center for AIDS research (obtained from)

HIV-2 integrase = molecular target: T2, HIV-2 integrase (Human immunodeficiency virus type 2 subtype A, UniProt P04584); assay: HIV-2 integrase 3′-processing assay; format: biochemical; conditions: HIV-1 DNA
T2 construct: A plasmid encoding the HIV-2 integrase was generously provided by Dr. R. H. A. Plasterk; made in house
T2 sequence (P04584 1172-1464): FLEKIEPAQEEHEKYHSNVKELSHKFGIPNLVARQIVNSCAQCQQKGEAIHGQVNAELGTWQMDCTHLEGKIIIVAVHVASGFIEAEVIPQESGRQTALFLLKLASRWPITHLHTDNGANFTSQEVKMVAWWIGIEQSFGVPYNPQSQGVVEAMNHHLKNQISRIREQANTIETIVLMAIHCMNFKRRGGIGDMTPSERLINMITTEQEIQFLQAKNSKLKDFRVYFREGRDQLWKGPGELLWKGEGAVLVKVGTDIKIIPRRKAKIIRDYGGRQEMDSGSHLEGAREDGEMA

HIV-1 integrase IN1-288 = molecular target: T3, HIV-1 integrase IN1-288 (Human immunodeficiency virus type 1 group M subtype B, UniProt P12497); assay: Disintegration assay, wild-type integrase; format: biochemical
T3 construct: purchased gift of Drs; T. Jenkins and R. Craigie, NIDDK, NIH (not bought; the expression system was also provided)

[2] = molecular target: T4, HIV-1 integrase deletion mutant IN1-212 (Human immunodeficiency virus type 1 group M subtype B, UniProt P12497); assay: Disintegration assay, IN1-212; format: biochemical
T4 construct: purchased gift of Drs; T. Jenkins and R. Craigie, NIDDK, NIH (not bought)

[3] = molecular target: HIV-1 integrase (wild-type and deletion mutants) (Human immunodeficiency virus type 1 group M subtype B, UniProt P12497); assay: UV crosslinking DNA binding experiments
Experimental: UV crosslinking experiments. The method used has been described by Engleman et al. Engelman, et al., J. Virol. 68, 5911-5917 (1994). Briefly, integrase (at the indicated concentration) was incubated with substrate in reaction buffer as above for 5 minutes at 30° C. Reactions were then irradiated with a UV transilluminator (254 nm wavelength) from 3 cm above (2.4 mW/cm2) at room temperature for 10 minutes. An equal volume (16 μL) of 2X SDS-PAGE buffer (100 mM Tris, pH 6.8, 4% 2-mercaptoethanol, 4% SDS, 0.2% bromophenol blue, 20% glycerol) was added to each reaction. Twenty μL aliquots were heated at 95° C. for 3 minutes prior to loading on a 12% or 18% SDS-polyacrylamide gel. The gel was run at 120 V for 1.5 hours, dried, and exposed in a Phosphorlmager cassette. […] For the competition experiments (FIG. 29), integrase (200 nM) was preincubated with either the radiolabeled viral DNA substrate (20 nM) or T30177 (20 nM) for 5 minutes at 30° C. prior to the addition of competitor DNA at the indicated concentration.

HIV-1SKI = assay: Analysis of replicated viral DNA (Hirt fractions), CEM-SS cells; format: cell-based
Experimental: Analysis of viral replication. CEM-SS cells (2×10^7) were infected with HIV-1SKI (MOI of I) for 45 minutes at 37 ° C. with gentle mixing. Following virus attachment, the cells were gently pelleted, washed twice and resuspended in complete tissue culture medium. The cells were then divided into aliquots, treated with various concentrations of drug and placed in T75 culture flasks. The cells were incubated at 37° C. for 18-20 hours and then harvested by centriguation. To extract nucleic acids for analysis of HIV-1 integration low- and high-molecular weight DNA were prepared from HIV-1 infected cells (untreated or treated with increasing concentrations of drug) according to the protocol originally described by Hirt (Hirt, B. J., J. Mol. Biol. 26:365-369 (1967)) and modified by Gowda et al., Gowda, et al., J. Immunol. 142:773-780 (1989).
DNA (300 ng), obtained from the low-molecular weight Hirt fractions, was used as the template in PCR analysis undergoing a 30 cycle amplification reaction using the conditions described by Steinkasserer et al. (Steinkasserer, et al., J. Virol. 69:814-824 (1995)). […] PCR products were separated by agarose gel electrophoresis and visualized by ethidium bromide staining.

[4] = format: in vivo, cynomolgus monkeys
Experimental: Dosing. Twelve experimentally naive cynomolgus monkeys were assigned to four groups of three animals each. Prior to dosing, each animal was lightly sedated with a combination of ketamine (1 0 mg/kg) and diazepam (0.5 mg/kg), and a catheter was introduced into the femoral artery for recording central arterial pressure. Monkeys were given a single intravenous infusion of 5, 20, or 50 mg AR177/kg or saline over ten minutes through a cephalic vein catheter using a Harvard infusion pump. Arterial blood samples were drawn at −10, +10, +20, +40, +60 and +120 minutes relative to the initiation of infusion into EDTA-containing tubes for hematology, complement factors, coagulation assay, serum chemistry, and plasma AR177 determination. At 24 hours post-infusion, blood was drawn via the femoral vein into EDTA-containing tubes for these same parameters. The concentration of AR177 in dosing solutions was confirmed post experiment by absorbance at 280 nm on a spectrophotometer. For the determination of AR177 by HPLC, the plasma fraction was obtained by low speed centrifugation of blood, and stored at −20° C. until used. Electrocardiograms (ECGs), central pressure, and heart rate were recorded continuously for 120 minutes following the initiation of doing. Table E-1 summarizes the study design. The animals were observed twice daily pharmacotoxic signs and general health beginning two days before dosing and for seven days following dosing. The monkeys were not necropsied at the end of the study.

[5] = cynomolgus monkey, up to 236 ug/mL
[6] = cynomolgus monkey, in vivo
[7] = tested on: HIV-1 strains (SKI, RF, DV, IIIB, ADP/141); conditions: previously reported by Ojwang et al.; cited from earlier work

5′-gtggtgggtgggtgggt-3′ (GTGGTGGGTGGGTGGGT; phosphorothioate termini, further chemistry not given here) [T30177]
IC50 ([1]; depending upon the template, read-out: 50% inhibitory value, viral reverse transcriptase): 1 to 10 µM | IC50 ([1]; template gapped duplex DNA, duplicate experiments, read-out: IC50 recombinant HIV-1 RT): > 5 µM and 8 µM and 10 µM | IC50 (HIV-2 integrase): 0.09 µM | IC50 (HIV-1 integrase IN1-288): 0.27 µM | IC50 [2]: 0.6 µM | competition of integrase complex by competitor DNA ([3]; competitor in 500-fold excess): could not be competed off | inhibition of integrase binding to radiolabeled U5 DNA substrate ([3]; enzyme preincubated with oligo): inhibited | concentration required for DNA-protein complex formation ([3]; radiolabeled T30177): ~20 nM | binding of IN1-55 (zinc finger domain) ([3]; zinc alone): able to bind | IC50 virus-induced cytopathogenicity (Coxsackie virus (B4); Coxsackie virus (B4)): >200 µg/mL | MCC minimum concentration altering normal cell morphology (Coxsackie virus (B4); Coxsackie virus (B4) assay): ≧400 μg/mL | IC50 virus-induced cytopathogenicity (Polio virus-1; Polio virus-1): >200 µg/mL | MCC minimum concentration altering normal cell morphology (Polio virus-1; Polio virus-1 assay): ≧400 μg/mL

5′-gtggtgggtgggtgggt-3′ [T30177] (GTGGTGGGTGGGTGGGT; phosphorothioate termini, further chemistry not given here) [pPT version of parent compound I100-15, 17 mer]
extent of viral replication (PCR of Hirt DNA) (HIV-1SKI): up to an including the production of 2-LTR circles | emesis during the infusion ([4]; 20 mg/kg): all of the monkeys | emesis during the infusion ([4]; 50 mg/kg): two of the three animals | blood pressure, heart rate, electrocardiographic activity ([4]; 5, 20, 50 mg/kg): No clearly treatment-related changes | mortality ([4]; up to 50 mg/kg): no animals died | IC50 virus-induced cytopathogenicity (Influenza A (H3N2); Influenza A (H3N2)): >125 µg/mL | MCC minimum concentration altering normal cell morphology (Influenza A (H3N2); Influenza A (H3N2) assay): >200 μg/mL | complement CH50 [5]: no effect | histopathology of organs and tissues [6]: No clearly treatment-related histopathologic changes | organ weight [6]: no effects on organ weight | IC50 [7]: 0.075 µM
